We go through four compounds from patent US20160346202A1, “Composition for Vectorizing an Anti-Cancer Agent” (GUERBET, priority 2014, published 2016).

Data set [1] is described as follows: Plasma kinetics of the anti-cancer agent after intra-arterial (TACE) injection, rat with N1-S1 tumor. The class given is in vivo, female Sprague-Dawley rats. The note with it: female, Sprague-Dawley, rat N1-S1 model. As to the method:
The tumor induction method described in Garin et al. (Lab Anim. 2005 July; 39(3): 314-20) was used on female Sprague-Dawley rats (supplier Dépré or Janvier, France), anesthetized beforehand.
6×10^6 N1-S1 rat hepatocellular carcinoma tumor cells (deposited at ATCC under the reference CRLL-1604™, also called Novikoff cells) suspended in 100 μl of IMDM medium (Iscove's Modified Dulbecco's Medium) were administered under the hepatic capsule of the left lateral lobe of the female rats, by slow injection over the course of approximately 50 seconds. […]
The plasma doxorubicin assay was carried out in the heparinized rat plasma by high performance liquid chromatography (or HPLC), the chromatograph being equipped with a fluorescence detector. […] 10 μl of the extract were analyzed by reverse-phase HPLC on a Zorbax 300SB-C18 4.6×150 mm, 3.5 μm column (with a Zorbax 300SB-C18 4.6×12.5 mm, 5 μm precolumn) and fluorimetric detection (excitation wavelength 480 nm, emission wavelength 560 nm).
The analysis was carried out over the course of 30 minutes with a 5 mM ammonium acetate, pH 3.5/acetonitrile gradient. […] When the area of the HPLC peak was greater than the upper limit of quantification, 5 μl were injected instead of 10 μl in order to obtain an area of doxorubicin included in the range. […]

The nature of data set [2]: Plasma kinetics of doxorubicin after TACE, VX2 rabbits. The class given is in vivo, New Zealand rabbits. To be noted: intra-arterial injection 300 μl, mean (±SD). On the procedure: The tumor induction method described by Hong et al. (Clin Cancer Res 2006; 12 (8): 2563-2567) was used on New Zealand rabbits (NZ; supplier Charles River, France), anesthetized beforehand.
Fragments of VX2 tumor tissues are implanted (a fragment of 25 mg/per liver of NZ rabbit) under the hepatic capsule of the left lateral lobe of the rabbits. These rabbits with a tumor in the left hepatic lobe will subsequently be referred to as “VX2 rabbits”.
19 days after having carried out the tumor induction method, the TACE is carried out. Thus, the products (volume: 300 μl) are injected into the pre-anesthetized animals, using a catheter guided by fluoroscopy (X-ray imaging) via the femoral artery and brought up to the artery feeding the hepatic tumor (injection only where selectivity has been achieved). The TACE is carried out in a dedicated room and under conditions close to clinical practice (interventional radiology).
Blood samples of 300 μl at times 0, 5, 15, 30 or 45 minutes after intra-arterial injection were taken after catheterization of the ear vein. 200 μl of plasma after centrifugation were then recovered and heparinized for assaying the anti-cancer agent. A study of the plasma kinetics of the anti-cancer agent was thus carried out.
The plasma doxorubicin assay was carried out in the heparinized plasma of VX2 rabbits under the same conditions as those described above. […]

Data set [3] in a line: Visual stability (phase separation) of the emulsion. The note with it: comparative emulsions not in accordance with the invention. In kind it is physicochemical. As to the method:
The emulsion according to the invention is advantageously stable. The term “stable emulsion” is intended to mean an emulsion having, under conventional temperature (20° C.) and atmospheric pressure (1 bar) conditions and within 24 hours following its preparation, a visual phase separation of less than 5% by volume relative to the total composition in emulsion form. […] Visual phase separation manifests itself when a solution no longer appears uniform to the eye, i.e. when the appearance of at least two phases is observed.

For `COc1cccc2c1C(=O)c1c(O)c3c(c(O)c1C2=O)C[C@@](O)(C(=O)CO)C[C@@H]3O[C@H]1C[C@H](N)[C@H](O)[C@H](C)O1` [Control doxorubicin alone, doxorubicin], in data set [1] (45 min after intra-arterial injection, read-out: Plasma doxorubicin concentration at 45 min), the concentration at 45 min is 112 ng/mL. In addition, the concentration at 5 min in data set [1] (intra-arterial injection 100 μl, 0.5 mg anti-cancer agent, average) was determined as 2450 ng/mL; in data set [2] (New Zealand, rabbit, plasma, read-out: Plasma concentration of the anti-cancer agent 5 minutes after injection), 563 ± 282 ng/mL. Also, the “Plasma concentration of the anti-cancer agent 5 minutes after injection” value in data set [2] (listed as Control doxorubicin alone given IA) was found to be 563 ± 282 ng/mL.

Turning to Span® 20, the “Observations: phase separation / stability” value in data set [3] is on record as “underwent phase separation immediately after they were prepared”.

Take Span® 83: the “Observations: phase separation / stability” value in data set [3] is given as “underwent phase separation immediately after they were prepared”.

Regarding Span® 85, the “Observations: phase separation / stability” value in data set [3] is recorded as “underwent phase separation immediately after they were prepared”.
